What was measured:
Recombinant IDO1 = Recombinant IDO1 (Homo sapiens (Human), UniProt P14902); assay: IDO1 enzymatic assay; assay type: biochemical; settings: 50 nM IDO1, 1.3 mM D-tryptophan, pH 7.5, read-out: Enzyme assay IC50
Description: Recombinant IDO1 was overexpressed and purified from E. coli cells with an N-terminal His tag. IDO1 enzymatic assay was carried out using a methodology similar to described in the literature (J. Biol. Chem. (1980), 255, 1339-1345). The reaction mixture contains 50 nM IDO1, 1.3 mM D-tryptophan, 5 mM L-ascorbic acid, […] methylene Blue, 0.4 mg/mL catalase and compound (or DMSO) in a buffer containing 50 mM potassium phosphate pH 7.5 and 0.1% BSA. After incubation at 24° C. for 1.5 hours, absorbance of the reaction mixture was continuously read at 321 nm to monitor the formation of N′-formylkynurenine by a FULOstar OMEGA plate reader (BMG LABTECH) for 1 hour. The enzymatic activity was determined by measuring the slope of the linear absorbance increase as a function of time. The IC50s are calculated based on remaining enzyme activity in the presence of increasing concentrations of compounds.

[1] = target: cellular IDO1 in HeLa cells (Homo sapiens (Human), UniProt P14902); assay: HeLa Cell-Based IDO1 Kyn (Kynurenine) Production Assay; settings: IFN-γ induced IDO1, 48 hours incubation, Kyn absorbance at 480 nm
Sequence of cellular IDO1 in HeLa cells (P14902 whole entry): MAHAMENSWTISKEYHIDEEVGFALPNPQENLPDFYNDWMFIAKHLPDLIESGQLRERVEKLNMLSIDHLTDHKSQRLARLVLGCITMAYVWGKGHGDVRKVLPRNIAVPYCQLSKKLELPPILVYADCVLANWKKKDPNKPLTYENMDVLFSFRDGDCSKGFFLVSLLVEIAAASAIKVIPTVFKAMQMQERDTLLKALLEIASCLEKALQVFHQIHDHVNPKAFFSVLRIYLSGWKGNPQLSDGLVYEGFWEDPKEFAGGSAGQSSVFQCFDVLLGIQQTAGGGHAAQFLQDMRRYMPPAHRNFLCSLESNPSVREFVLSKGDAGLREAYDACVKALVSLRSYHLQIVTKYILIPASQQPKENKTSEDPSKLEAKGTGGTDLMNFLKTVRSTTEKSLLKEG
Procedure, shortened: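 Compounds added to HeLa cells together with IFN-γ (100 ng/mL final) and 0.4 mM L-Trp, 48 h at 37 °C. Kynurenine in TCA-deproteinized supernatant measured colorimetrically with 4-(dimethylamino)benzaldehyde at 480 nm; IC50 from four-parameter logistic fit.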

Sequence of Recombinant IDO1 (P14902 whole entry, species assumed): as the sequence (P14902 whole entry) above

| Compound | IC50 (Recombinant IDO1) | EC50 [1] |
| --- | --- | --- |
| 4-((1s,4s)-4-((5-chloro-1H-benzo[d]imidazol-2-yl)methyl)cyclohexyl)-6-fluoroquinoline [Example A1b] | > 10000 nM | 8 nM |
| Fc1ccc2nccc(C3CCC(Cc4nc5cc(Cl)ccc5[nH]4)CC3)c2c1 (centres unmarked) [Example A1a, 4-(4-((5-chloro-1H-benzo[d]imidazol-2-yl)methyl)cyclohexyl)-6-fluoroquinoline] | > 10000 nM | 51 nM |
| Cc1ccc2[nH]c(C[C@H]3CC[C@H](c4ccnc5ccc(F)cc54)CC3)nc2c1 [Example A2a, 6-fluoro-4-((1r,4r)-4-((5-methyl-1H-benzo[d]imidazol-2-yl)methyl)cyclohexyl)quinoline] | > 10000 nM | 241 nM |
| Cc1ccc2[nH]c(C[C@H]3CC[C@@H](c4ccnc5ccc(F)cc54)CC3)nc2c1 [Example A2b, 6-fluoro-4-((1s,4s)-4-((5-methyl-1H-benzo[d]imidazol-2-yl)methyl)cyclohexyl)quinoline] | > 10000 nM | 53 nM |
| Fc1ccc2nccc([C@H]3CC[C@H](Cc4nc5cc(C6CC6)ccc5[nH]4)CC3)c2c1 [Example A4a, 4-((1r,4r)-4-((5-cyclopropyl-1H-benzo[d]imidazol-2-yl)methyl)cyclohexyl)-6-fluoroquinoline] | > 10000 nM | 131 nM |
| Fc1ccc2nccc([C@H]3CC[C@@H](Cc4nc5cc(C6CC6)ccc5[nH]4)CC3)c2c1 [Example A4b, 4-((1s,4s)-4-((5-cyclopropyl-1H-benzo[d]imidazol-2-yl)methyl)cyclohexyl)-6-fluoroquinoline] | > 10000 nM | 13 nM |
| Fc1ccc2nccc([C@H]3CC[C@H](Cc4nc5cc(F)c(F)cc5[nH]4)CC3)c2c1 [Example A6a, 4-((1r,4r)-4-((5,6-difluoro-1H-benzo[d]imidazol-2-yl)methyl)cyclohexyl)-6-fluoroquinoline] | > 10000 nM | 141 nM |
| Fc1ccc2nccc([C@H]3CC[C@@H](Cc4nc5cc(F)c(F)cc5[nH]4)CC3)c2c1 [Example A6b, 4-((1s,4s)-4-((5,6-difluoro-1H-benzo[d]imidazol-2-yl)methyl)cyclohexyl)-6-fluoroquinoline] | > 10000 nM | 14 nM |
| Cc1cc2nc(C[C@H]3CC[C@H](c4ccnc5ccc(F)cc54)CC3)[nH]c2cc1C [Example A9a, 4-((1r,4r)-4-((5,6-dimethyl-1H-benzo[d]imidazol-2-yl)methyl)cyclohexyl)-6-fluoroquinoline] | > 10000 nM | 186 nM |
| Cc1cc2nc(C[C@H]3CC[C@@H](c4ccnc5ccc(F)cc54)CC3)[nH]c2cc1C [Example A9b, 4-((1s,4s)-4-((5,6-dimethyl-1H-benzo[d]imidazol-2-yl)methyl)cyclohexyl)-6-fluoroquinoline] | > 10000 nM | 24 nM |
| Clc1ccc2[nH]c(C[C@H]3CC[C@H](c4ccnc5ccccc54)CC3)nc2c1 [Example A10a, 4-((1r,4r)-4-((5-chloro-1H-benzo[d]imidazol-2-yl)methyl)cyclohexyl)quinoline] | > 10000 nM | 91 nM |
| Clc1ccc2[nH]c(C[C@H]3CC[C@@H](c4ccnc5ccccc54)CC3)nc2c1 [Example A10b, 4-((1s,4s)-4-((5-chloro-1H-benzo[d]imidazol-2-yl)methyl)cyclohexyl)quinoline] | > 10000 nM | 10 nM |
| Fc1ccc2nccc(C3CCC(Cc4nc5cc(Cl)c(Cl)cc5[nH]4)CC3)c2c1 (centres unmarked) [Example A12, 4-(4-((5,6-dichloro-1H-benzo[d]imidazol-2-yl)methyl)cyclohexyl)-6-fluoroquinoline] | > 10000 nM | 11 nM |
| COC(=O)c1ccc2[nH]c(CC3CCC(c4ccnc5ccc(F)cc45)CC3)nc2c1 (centres unmarked) [Example A13, methyl 2-((4-(6-fluoroquinolin-4-yl)cyclohexyl)methyl)-1H-benzo[d]imidazole-5-carboxylate] | > 10000 nM | 8.4 nM |
| O=C(O)c1ccc2[nH]c(CC3CCC(c4ccnc5ccc(F)cc45)CC3)nc2c1 (centres unmarked) [Example A14, 2-((4-(6-fluoroquinolin-4-yl)cyclohexyl)methyl)-1H-benzo[d]imidazole-5-carboxylic acid] | > 10000 nM | > 10000 nM |
| Clc1ccc2[nH]c(CC3CCC(c4ccc5ccccc5n4)CC3)nc2c1 (centres unmarked) [Example A18, 2-(4-((5-chloro-1H-benzo[d]imidazol-2-yl)methyl)cyclohexyl)quinoline] | 5300 nM | 50 nM |

More lines, now with the values ahead:

| IC50 (Recombinant IDO1) | EC50 [1] | Compound |
| --- | --- | --- |
|  | 0.96 nM | Cc1noc(-c2ccc3nc([C@H](C)[C@H]4CC[C@@H](c5ccnc6ccc(F)cc65)CC4)[nH]c3c2)n1 [Example B220, 5-(2-((R)-1-((1s,4S)-4-(6-fluoroquinolin-4-yl)cyclohexyl)ethyl)-1H-benzo[d]imidazol-6-yl)-3-methyl-1,2,4-oxadiazole] |
|  | 74 nM | Fc1ccc2nccc([C@H]3CC[C@H](c4nc5cc(Cl)ccc5[nH]4)CC3)c2c1 [Example C2a, 4-((1r,4r)-4-(5-chloro-1H-benzo[d]imidazol-2-yl)cyclohexyl)-6-fluoroquinoline] |
|  | 11 nM | Fc1ccc2nccc([C@H]3CC[C@@H](c4nc5cc(Cl)ccc5[nH]4)CC3)c2c1 [Example C2b, 4-((1s,4s)-4-(5-chloro-1H-benzo[d]imidazol-2-yl)cyclohexyl)-6-fluoroquinoline] |
|  | 16 nM | Cc1ccc2[nH]c(C3CCC(c4ccnc5ccc(F)cc45)CC3)nc2c1 (centres unmarked) [Example C3, 6-fluoro-4-(4-(5-methyl-1H-benzo[d]imidazol-2-yl)cyclohexyl)quinoline] |
|  | 9.1 nM | Fc1ccc2nccc(C3CCC(c4nc5cc(Br)ccc5[nH]4)CC3)c2c1 (centres unmarked) [Example C4, 4-(4-(5-bromo-1H-benzo[d]imidazol-2-yl)cyclohexyl)-6-fluoroquinoline] |
|  | 1430 nM | Fc1ccc2[nH]c([C@H]3CC[C@H](c4ccnc5ccc(F)cc54)CC3)nc2c1 [Example C5a, 6-fluoro-4-((1r,4r)-4-(5-fluoro-1H-benzo[d]imidazol-2-yl)cyclohexyl)quinoline] |
|  | 73 nM | Fc1ccc2[nH]c([C@H]3CC[C@@H](c4ccnc5ccc(F)cc54)CC3)nc2c1 [Example C5b, 6-fluoro-4-((1s,4s)-4-(5-fluoro-1H-benzo[d]imidazol-2-yl)cyclohexyl)quinoline] |
|  | 14 nM | Fc1ccc2nccc([C@H]3CC[C@@H](c4nc5cc(C6CC6)ccc5[nH]4)CC3)c2c1 [Example C6b, 4-((1s,4s)-4-(5-cyclopropyl-1H-benzo[d]imidazol-2-yl)cyclohexyl)-6-fluoroquinoline] |
|  | 1360 nM | Fc1ccc2nccc([C@H]3CC[C@H](c4nc5cc(F)c(F)cc5[nH]4)CC3)c2c1 [Example C7a, 4-((1r,4r)-4-(5,6-difluoro-1H-benzo[d]imidazol-2-yl)cyclohexyl)-6-fluoroquinoline] |
|  | 70 nM | Fc1ccc2nccc([C@H]3CC[C@@H](c4nc5cc(F)c(F)cc5[nH]4)CC3)c2c1 [Example C7b, 4-((1s,4s)-4-(5,6-difluoro-H-benzo[d]imidazol-2-yl)cyclohexyl)-6-fluoroquinoline] |
|  | 1200 nM | COC(=O)c1ccc2[nH]c([C@H]3CC[C@H](c4ccnc5ccc(F)cc54)CC3)nc2c1 [Example C8a, methyl 2-((1r,4r)-4-(6-fluoroquinolin-4-yl)cyclohexyl)-1H-benzo[d]imidazole-5-carboxylate] |
|  | 37 nM | COC(=O)c1ccc2[nH]c([C@H]3CC[C@@H](c4ccnc5ccc(F)cc54)CC3)nc2c1 [Example C8b, methyl 2-((1s,4s)-4-(6-fluoroquinolin-4-yl)cyclohexyl)-1H-benzo[d]imidazole-5-carboxylate] |
|  | > 10000 nM | NC(=O)c1ccc2[nH]c([C@H]3CC[C@H](c4ccnc5ccc(F)cc54)CC3)nc2c1 [Example C9a, 2-((1r,4r)-4-(6-fluoroquinolin-4-yl)cyclohexyl)-1H-benzo[d]imidazole-5-carboxamide] |
|  | 1240 nM | NC(=O)c1ccc2[nH]c([C@H]3CC[C@@H](c4ccnc5ccc(F)cc54)CC3)nc2c1 [Example C9b, 2-((1s,4s)-4-(6-fluoroquinolin-4-yl)cyclohexyl)-1H-benzo[d]imidazole-5-carboxamide] |
|  | 7 nM | Fc1ccc2nccc(C3CCC(CCc4nc5cc(C6CC6)ccc5[nH]4)CC3)c2c1 (centres unmarked) [Example C10, 4-(4-(2-(5-cyclopropyl-1H-benzo[d]imidazol-2-yl)ethyl)cyclohexyl)-6-fluoroquinoline] |
|  | 12 nM | Fc1ccc2nccc([C@H]3CC[C@@H](CCc4nc5cc(Cl)ccc5[nH]4)CC3)c2c1 [Example C11, 4-((1r,4r)-4-(2-(5-chloro-1H-benzo[d]imidazol-2-yl)ethyl)cyclohexyl)-6-fluoroquinoline] |
|  | 1090 nM | Clc1ccc2nc(C3CC4CC3CC4c3ccccc3)[nH]c2c1 (centres unmarked) [Example D1, 6-chloro-2-(5-phenylbicyclo[2.2.1]heptan-2-yl)-1H-benzo[d]imidazole] |
|  | 69 nM | Clc1ccc2[nH]c(CCC3CC4CC3CC4c3ccccc3)nc2c1 (centres unmarked) [Example D2, 5-chloro-2-(2-(5-phenylbicyclo[2.2.1]heptan-2-yl)ethyl)-1H-benzo[d]imidazole] |

Source: patent publication US11472788B2, “Benzoimidazoles as selective inhibitors of indoleamine 2,3-dioxygenases” (BEIGENE, LTD., priority 2017, dated 2022)
